{
  "source": "patent US9532553B2",
  "about": "“Process for treating with a chemical compound a body of water used in aquaculture” (SOLVAY SA, priority 2009, dated 2017)",
  "key": {"Atlantic salmons": {"test_system": "Atlantic salmons", "conditions": "Example 3: 1500 ppm hydrogen peroxide in 500 m^3 sea water, added in about 4.5 min via eductor nozzle agitation system, treatment continued 22.5 min", "procedure": "The treatment was continued for 22.5 minutes then the treated water was flushed away and replaced by fresh seawater.\nIn Example 3, the body of water comprised additionally Atlantic salmons as living organisms, said salmons being infested with external parasites, i.e. salmon lice (Lepeophtheirus salmonis). The purpose of the test was to remove these parasites from the fish."}, "[1]": {"test_system": "salmon lice (Lepeophtheirus salmonis)", "conditions": "Example 3: 1500 ppm hydrogen peroxide in 500 m^3 sea water, added in about 4.5 min, treatment continued 22.5 min, then flushed; infested Atlantic salmons"}},
  "data": [
    {"compound": "OO", "note": "[hydrogen peroxide]", "values": [
      {"measurement": "injury to the fish", "setting": "Atlantic salmons", "result": "without injuring the fish"},
      {"measurement": "removal of salmon lice from the treated fish", "setting": "[1]", "result": "effective in removing the salmon lice"}
    ]}
  ]
}
